# Read-outs that look alike come from different tables or passages of the source.
# Assays:
# [1] = tested on: platelets; test: Ex vivo platelet aggregation after oral dosing, arachidonate and collagen (method of Born), guinea pig; type: in vivo; conditions: Cavia porcellus, read-out: dose required to inhibit aggregation rate by 50% (ED50)
# Protocol: (§1) b. Ex vivo studies: The aggregation of platelets taken from animals dosed by the oral route with Compound II is inhibited when tested with arachidonate and collagen by the method of Born ((1962) Nature 194, 927, 929). The dose required to inhibit aggregation rate by 50% (ED50) at 1 hour was 5 mg/kg and 10 mg/kg in the guinea pig and rat, respectively. By comparison, the ED50 for aspirin in the guinea pig was 30 mg/kg, while the ED50 for aspirin in the rat was 10 mg/kg. The ED50 for indomethacin was 10 mg/kg and 5 mg/kg in the guinea pig and rat, respectively. In the dog, 10 mg/kg p.o. was an ED50 for as long as 6 hr.
# [2] = tested on: subplantar injection of trypsin; test: Modified Trypsin Hyperalgesic Assay; type: in vivo; conditions: drug administration 15 minutes before subplantar trypsin
# [3] = tested on: exudate fluid volume; test: Carrageenin Pleurisy Assay (Acute); type: in vivo, rat; conditions: 3 h, read-out: 3 hr. ED50 against exudate fluid volume
# Description: a. […] In this assay, the 3 hr.
# [4] = tested on: platelets; test: Ex vivo platelet aggregation after oral dosing, arachidonate and collagen (method of Born), rat; type: in vivo; conditions: read-out: dose required to inhibit aggregation rate by 50% (ED50)
# Protocol: as §1
# [5] = tested on: gastric erosion; type: in vivo; conditions: guinea pig
# [6] = tested on: adjuvant arthritis; test: Adjuvant Arthritis Assay (Chronic); type: in vivo, rat; conditions: po, 336 h, read-out: ED50, development of adjuvant arthritis
# [7] = tested on: gastric damage; type: in vivo; conditions: rat
# [8] = tested on: dog platelets; test: Ex vivo platelet aggregation after oral dosing, dog; type: in vivo; conditions: Canis lupus familiaris, for as long as 6 hr
# Protocol: as §1
# [9] = tested on: Yeast-induced hyperthermia; test: Yeast-Induced Hyperthermia Assay; type: in vivo, rat
# [10] = tested on: stasis-induced jugular vein thrombosis; test: Protection against stasis-induced jugular vein thrombosis; type: in vivo; conditions: guinea pig; given 1 hour prior to ligation
# Protocol: b. Protection against stasis-induced jugular vein thrombosis: When a 1 cm length of guinea pig jugular vein is ligated in situ, a thrombus forms within 30 min. Six mg/kg p.o. of either Compound II or aspirin given 1 hour prior to ligation protected 50% of the animals from thrombosis.
SMILES,"ED50 ([1]; guinea pig, oral route, at 1 hour, arachidonate and collagen)",ED50 ([2]; read-out: ED50),"ED50 ([3]; rat, oral route)","ED50 ([4]; rat, oral route, at 1 hour, arachidonate and collagen)","gastric damage ([5]; in vivo, po, 100 mg/kg/day)","ED50 ([6]; rat, by gavage for 14 days)","gastric damage ([7]; in vivo, po, 75 mg/kg/day)","gastric damage ([7]; in vivo, po, 150 mg/kg)",ED50 [8],"ED50 ([1]; po, 1 h)",ED50 [2],"ED50 ([3]; Rattus norvegicus, po)","ED50 ([4]; Rattus norvegicus, po, 1 h)",gastric damage ([5]; 100 mg/kg/day p.o. for 3 days),ED50 ([6]; Rattus norvegicus),gastric damage ([7]; single oral dose of 30 mg/kg),"ED50 ([9]; Rattus norvegicus, po)","hypothermia ([9]; rat, for Compound II 3-4 hours after dosing)",dose that protected 50% of the animals from thrombosis [10],gastric damage ([7]; single oral dose of 5 mg/kg)
CN(C)CCOc1ccccc1-c1nc(-c2ccccc2)c(-c2ccccc2)[nH]1 [Compound II],5 mg/kg,~50 mg/kg,37 mg/kg,10 mg/kg,very slight gastric erosion,294 mg/kg,does not produce gastric damage,does not produce gastric damage,10 mg/kg,,,,,,,,,,,
CC(=O)Oc1ccccc1C(=O)O [aspirin],,,,,,,,,,30 mg/kg,inactive,28 mg/kg,10 mg/kg,severe ulceration and hemorrhage,175 mg/kg,produces ulcers and hemorrhages,50 mg/kg,does not produce hypothermia,Six,
COc1ccc2c(c1)c(CC(=O)O)c(C)n2C(=O)c1ccc(Cl)cc1 [indomethacin],,,,,,,,,,10 mg/kg,inactive,2 mg/kg,5 mg/kg,,1 mg/kg,,,,,produces ulcers
